Measured values: US20250368624A1, “M24B AMINOPEPTIDASE INHIBITORS FOR CARD8 INFLAMMASOME ACTIVATION” (Memorial Sloan-Kettering Cancer Center, priority 2022, published 2025)

Legend:
recombinant human PEPD = recombinant human PEPD (Homo sapiens (Human), UniProt P12955); test: PEPD substrate assay (Ala-Pro cleavage, L-alanine assay kit); format: biochemical; settings: for IC50: 50 nM recombinant human PEPD, Ala-Pro 40 μM, 25° C.
[1] = De-esterification in cell culture; format: in vitro ADME; settings: after 24 h
XPNPEP1 = XPNPEP1 (Homo sapiens (Human), UniProt Q9NQW7); test: XPNPEP1 substrate assay (H-Lys(abz)-Pro-Pro-pNA); format: biochemical; settings: for IC50: XPNPEP1 3.5 nM, substrate 100 μM, 60 mins
XPNPEP1, sequence (Q9NQW7 whole entry): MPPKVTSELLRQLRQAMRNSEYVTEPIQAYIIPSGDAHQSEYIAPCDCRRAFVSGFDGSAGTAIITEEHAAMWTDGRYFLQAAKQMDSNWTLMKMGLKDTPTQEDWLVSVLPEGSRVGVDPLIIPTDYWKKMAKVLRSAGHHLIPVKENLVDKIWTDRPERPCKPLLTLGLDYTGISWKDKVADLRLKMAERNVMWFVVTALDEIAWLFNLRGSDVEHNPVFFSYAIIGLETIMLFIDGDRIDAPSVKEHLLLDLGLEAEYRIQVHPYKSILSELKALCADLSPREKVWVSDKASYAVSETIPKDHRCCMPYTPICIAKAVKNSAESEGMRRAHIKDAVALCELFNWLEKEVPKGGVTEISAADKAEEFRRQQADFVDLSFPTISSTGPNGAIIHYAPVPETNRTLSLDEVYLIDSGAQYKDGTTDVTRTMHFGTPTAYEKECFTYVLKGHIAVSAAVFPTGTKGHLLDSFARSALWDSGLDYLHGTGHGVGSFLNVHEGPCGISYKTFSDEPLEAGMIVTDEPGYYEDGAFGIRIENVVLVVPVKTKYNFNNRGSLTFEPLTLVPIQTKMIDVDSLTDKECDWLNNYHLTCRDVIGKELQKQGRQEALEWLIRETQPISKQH

[2] = tested on: MV4;11, OCI-AML2, and THP-1 cells; test: LDH release and GSDMD cleavage immunoblot; format: cell-based; settings: WT vs CARD8-/- cells, 20 μM, 24 h
Procedure: LDH cytotoxicity and immunoblotting assays. HEK293T cells were transiently transfected and treated with inhibitors as indicated. MV4;11, OCI AML2, THP-1, and RAW264.7 cells were plated in 12-well culture plates at 5×10^5 cells/well and treated as indicated. Supernatants were analyzed for LDH activity using the Pierce LDH Cytotoxicity Assay Kit (Life Technologies). LDH activity was quantified relative to a lysis control where cells were lysed in 80 μL of a 9% Triton X-100 solution. For immunoblotting, cells were washed 2× in PBS (pH=7.4), resuspended in PBS, and lysed by sonication. Protein concentrations were determined and normalized using the DCA Protein Assay kit (Bio-Rad). The samples were separated by SDS-PAGE, immunoblotted, and visualized using the Odyssey Imaging System (Li-Cor).

OCI-AML2 cells = test: Propidium iodide uptake, OCI-AML2 cells; format: cell-based; settings: 6.25 μM, compared to CQ31
Procedure: Propidium iodideflux analysis. 2×10^4 MV4;11 or OCI-AML2 cells were plated in 384-well, black, clear-bottom plate (Corning) in RPMI medium. Cells were then treated as indicated and propidium iodide (PI) was added at a final concentration of 10 μM. PI fluorescence was measured at (Ex/Em: 535/617 nm) recorded at 37° C. every 5 mins in a Cytation 5 Cell Imaging Multi-Mode Reader (BioTek). The obtained measurements were baseline corrected to vehicle/DMSO and normalized to maximum response.

recombinant human PEPD, sequence (P12955 whole entry): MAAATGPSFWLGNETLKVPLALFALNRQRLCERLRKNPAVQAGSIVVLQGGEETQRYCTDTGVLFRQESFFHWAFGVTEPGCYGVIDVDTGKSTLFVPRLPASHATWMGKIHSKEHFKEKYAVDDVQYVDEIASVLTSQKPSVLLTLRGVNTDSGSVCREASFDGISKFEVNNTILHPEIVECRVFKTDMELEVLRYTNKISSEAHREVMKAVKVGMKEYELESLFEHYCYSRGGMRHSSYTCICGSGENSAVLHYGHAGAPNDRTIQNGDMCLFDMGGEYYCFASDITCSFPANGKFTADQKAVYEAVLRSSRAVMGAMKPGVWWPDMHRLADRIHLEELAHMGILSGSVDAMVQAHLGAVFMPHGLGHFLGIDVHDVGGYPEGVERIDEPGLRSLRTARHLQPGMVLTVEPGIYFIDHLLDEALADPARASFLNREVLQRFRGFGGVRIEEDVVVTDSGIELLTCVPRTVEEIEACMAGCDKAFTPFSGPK

SMILES	PEPD inhibition (in words) (recombinant human PEPD)	IC50 (recombinant human PEPD) [µM]	de-esterification to CQ04 in cell culture [1]	XPNPEP1 inhibition (in words) (XPNPEP1)	IC50 (XPNPEP1) [µM]	LDH release and GSDMD cleavage [2]	lytic cell death by uptake of propidium iodide (OCI-AML2 cells)
COC(=O)[C@@H]1CCCN1C(=O)[C@@H](O)[C@H](N)CC(C)C [CQ31]	inhibited PEPD and XPNPEP1 inhibitors similarly	0.67	completely de-esterified	inhibited PEPD and XPNPEP1 inhibitors similarly	122	induced lactate dehydrogenase (LDH) release and GSDMD cleavage	–
COC(=O)[C@H](CC(C)C)NC(=O)[C@@H]1CCCN1C(=O)[C@@H](O)[C@H](N)CC(C)C [CQ80, Methyl ((2S,3R)-3-amino-2-hydroxy-5-methylhexanoyl)-L-prolyl-L-leucinate]	–	0.91	–	–	43	induced lactate dehydrogenase (LDH) release and GSDMD cleavage	more rapid lytic cell death
